This note sets out measurements from patent US20230365592A1 (Agios Pharmaceuticals, Inc., priority 2022, published 2023).

The AC50 is the midpoint of the concentration-response curve, whichever way the signal moves.

This assay concerns the target T1, human PAH with the R408W mutation (Homo sapiens, UniProt P00439, R408W).
T1 construct: expressed in transfected cells
T1 sequence (P00439 1-452 R408W): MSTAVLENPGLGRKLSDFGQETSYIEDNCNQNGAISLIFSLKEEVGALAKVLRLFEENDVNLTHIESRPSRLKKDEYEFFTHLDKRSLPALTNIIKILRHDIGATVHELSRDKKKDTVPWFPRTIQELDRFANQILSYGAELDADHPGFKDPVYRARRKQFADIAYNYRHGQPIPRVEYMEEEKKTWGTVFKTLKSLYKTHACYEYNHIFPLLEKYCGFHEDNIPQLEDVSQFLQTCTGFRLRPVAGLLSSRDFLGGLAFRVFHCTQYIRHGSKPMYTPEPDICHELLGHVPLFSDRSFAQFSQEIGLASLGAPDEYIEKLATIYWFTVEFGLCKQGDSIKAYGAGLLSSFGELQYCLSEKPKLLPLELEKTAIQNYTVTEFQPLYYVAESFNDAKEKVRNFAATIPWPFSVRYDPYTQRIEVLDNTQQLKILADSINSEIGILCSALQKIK
Put plainly: Cell Based Phenylalanine Flux Assay.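 Note: after compound treatment, cells received sepiapterin plus isotope-labelled Phenylalanine for 4 hours, then labelled Tyrosine in the medium was quantified, 10-point 2-fold dilution series run in duplicate.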 Conditions: 13C-Tyrosine by LC-MS, average where tested multiple times, read-out: AC50.

[1] abbreviates: A375 cells expressing human R408W PAH, 24 hrs compound incubation.
[2] abbreviates: A375 cells expressing human PAH R408W, 24 hrs compound incubation.

The structures appear in SMILES notation. Read-outs that look alike come from different tables or passages of the source.

`O=C(c1nnc(-c2ccccn2)o1)N1CCc2[nH]cnc2C1c1cc2cc(F)ccn2n1` (stereo not drawn): where the note is “A375 cells expressing R408W PAH, 24 hrs with compound, then 20 µM sepiapterin and 800 µM 13C9,15N-Phenylalanine for 4 hours”, the AC50 is more than 5 µM.

For the compound `COc1cccn2nc([C@H]3c4nc[nH]c4CCN3C(=O)c3nnc(-c4ccn(C(F)F)n4)o3)cc12` [Example 1722, (R)-(5-(1-(difluoromethyl)-1H-pyrazol-3-yl)-1,3,4-oxadiazol-2-yl)(4-(4-methoxypyrazolo[1,5-a]pyridin-2-yl)-6,7-dihydro-1H-imidazo[4,5-c]pyridin-5(4H)-yl)methanone], the AC50 under setting [1] is more than 5 µM. Take `Cn1ccc(-c2nnc(C(=O)N3CCc4[nH]cnc4[C@@H]3c3cc4c(F)cccn4n3)s2)n1` [Example 1994, (R)-(4-(4-fluoropyrazolo[1,5-a]pyridin-2-yl)-1,4,6,7-tetrahydro-5H-imidazo[4,5-c]pyridin-5-yl)(5-(1-methyl-1H-pyrazol-3-yl)-1,3,4-thiadiazol-2-yl)methanone]: the AC50 under setting [2] is more than 5 µM. On the same count and under the same terms, then `O=C(c1cnc(C2CC2)o1)N1CCc2[nH]cnc2[C@H]1c1cc2c(C(F)F)cccn2n1` [Example 2102, (S)-(2-cyclopropyloxazol-5-yl)(4-(4-(difluoromethyl)pyrazolo[1,5-a]pyridin-2-yl)-1,4,6,7-tetrahydro-5H-imidazo[4,5-c]pyridin-5-yl)methanone], with less than 0.5 µM. As for `Cn1ccc(-c2nnc(C(=O)N3CCc4[nH]cnc4[C@H]3c3cc4c(Cl)cccn4n3)o2)n1` [Example 718, (S)-(4-(4-chloropyrazolo[1,5-a]pyridin-2-yl)-6,7-dihydro-1H-imidazo[4,5-c]pyridin-5(4H)-yl)(5-(1-methyl-1H-pyrazol-3-yl)-1,3,4-oxadiazol-2-yl)methanone], the AC50 under setting [1] was less than 0.5 µM. Same read-out and setting: next, `O=C(c1nnc(-c2cc(C(F)(F)F)ccn2)o1)N1CCc2[nH]cnc2[C@@H]1c1cc2ccccn2n1` [Example 668, (R)-(4-(pyrazolo[1,5-a]pyridin-2-yl)-6,7-dihydro-1H-imidazo[4,5-c]pyridin-5(4H)-yl)(5-(4-(trifluoromethyl)pyridin-2-yl)-1,3,4-oxadiazol-2-yl)methanone]: more than 5 µM.
